According to patent US20170166870A1, “HUMAN HEPATIC 3D CO-CULTURE MODEL AND USES THEREOF” (Vrije Universiteit Brussel, priority 2014, published 2017):
Where “and” joins values, the source holds several entries; their conditions need not be identical. Equal values may be shown once. Read-outs that look alike come from different tables or passages of the source.

Columns and labels:
3D HepaRG mono-culture [1] = assay: APAP toxicity assay, cell viability by ATP (Cell titer Glo); assay type: cell-based; details: Homo sapiens, 0% DMSO, read-out: APAP EC50 values (±stdev)
Method: (§1) APAP toxicity assay was performed in 3D HepaRG/co-culture as well as in 3D HepaRG monoculture. For 24 h, starting at day 20, cells were exposed to a range of APAP concentrations between 0.5 and 80 mM, keeping cells with the solvent (0.1% DMSO) as a control. For some experiments the culture medium was supplemented with 2.5 mM valproic acid (VPA sodium salt, Sigma-Aldrich) or with cytokine mixture (Raicevic et al.,2012)-interleukin (IL)-1β 25 ng/mL (Peprotech, Rocky Hill, N.J., USA), interferon (IFN)-γ 10^3 U/mL, tumor necrosis factor (TNF)-a 50 ng/mL, and IFN-α 3·10^3 U/mL (all from Prospec, Inc., East Brunswick, N.J., USA). For the recovery assay, at the end of APAP incubation, cells were washed using HepaRG culture 0% DMSO medium and kept in the same medium for 3 more days.
(§2) At the end of the incubation period, 5 spheroids per condition were pooled and lysed for RNA analyses, while the remaining spheroids per condition were lysed individually for viability analysis using the Cell titer Glo kit (Promega) for ATP measurements following the instructions of the manufacturer.

3D HSC mono-culture = assay: APAP toxicity on HSC; assay type: cell-based, human; details: APAP 0.5-80 mM, 24 h
Method: as §1, with “days. […]” for “days.”
We investigated the effect of APAP on the different cell types by measurement of the two major energy producing pathways assessing at the mitochondrial functional level. For that purpose, we measured the Oxygen Consumption Rate (OCR) and Glycolisis (through proton production—Extracellular Acidification rate, ECAR) using the XF Cell Mito Stress Test Kit (Seahorse Biosciences) 0, 12 and 24 hours of APAP incubation in the three 3D cultures. […]

3D HepaRG mono-culture [2] = assay: mRNA expression of HSC activation markers (qPCR) after APAP incubation; assay type: cell-based, human; details: 20 mM APAP, 24h, Assays 1-3
Method: as §1, §2
(§3) Total RNA was extracted from cells using the ReliaPrep RNA Cell Miniprep System (Promega, Madison, Wis.). Reverse-transcription using the Revert Aid Kit (ThermoFisher Scientific, St. Leon-Rot, Germany) allowed conversion of RNA to cDNA. The RT reaction was performed at 25° C. for ten minutes followed by 30 minutes at 50° C. For quantitative real-time polymerase chain reaction (qPCR), GoTaq QPCR Master Mix with BRYTE green (Promega, Madison, Wis.) was used, subjected to qPCR in a 7500 real time PCR system and analysed using System SDS software v2.0.5 (Applied Biosystems), using GAPDH for normalisation.

3D HepaRG/HSC co-culture [3] = assay: as above; assay type: cell-based, human; details: additional 3 days in culture upon APAP washout
Method: as §1, §2, §3

3D HepaRG/HSC co-culture [4] = assay: Single and repeated exposure, cell viability (% ATP), serum-free medium; assay type: cell-based, human; details: Homo sapiens, HepaRG, serum-free medium
Method: Culture medium. Day 0 cells were resuspended in HepaRG thawing medium and from day 1 to 21 cells were kept in the HepaRG culture medium 0% DMSO, until day 8. For the repeated versus single compound exposure assays, on day 8, the HepaRG culture medium 0% DMSO was replaced by the Serum-free HepaRG maintenance medium described in Klein et. al. 2013 (HepaRG Induction/Toxicity medium, DMSO 0.5% (v/v), 2 μg/ml of epidermal growth factor and 10 μg/ml of hepatocyte growth factor) and kept in this medium until the end of culture.
(§4) Single and repeated exposure. For the single and repeated compound exposure cell spheroids (3D HepaRG/HSC, 3D HepaRG and 3D HSC) were exposed respectively on day 20 for 24 h or every second day from day 8 to day 21 in serum-free medium with no additional solvent. Cells were exposed to a range of 8 concentrations between 0.5 and 80 mM for APAP single-dose, 0.125 and 40 mM for APAP repeated-dose, 0.3 and 500 μM Allyl Alcohol (AA, Sigma-Aldrich), 1.9 and 1000 μM Methotrexate (MTX, Pfizer, NY, USA). For the recovery assay, on day 21, cells were washed using serum-free medium and kept for 3 extra days.
Cell viability assay was performed by measuring ATP production upon individual spheroid exposure to the different concentrations of the test compound. Cell spheroids were lysed individually for viability analysis using the Cell titer Glo kit (Promega) following the instructions of the manufacturer. Luminescence values were converted into percentage of ATP by comparison with controls and converted into dose-response curves using Prism 5 software.

3D HepaRG/HSC co-culture [5] = assay: Single and repeated exposure, gene expression of HSC activation markers; assay type: cell-based, human; details: for HSC activation (up-regulation of activation markers, mRNA): serum-free medium
Method: as §4
For the cell culture samples, total RNA from 4-6 pooled spheroids was extracted from cells using the RNeasy Micro Kit (Qiagen, Venlo, Limburg, Netherlands). In the mouse assays, sorted HSC from different mice were lysed separately. Total RNA from tissue cultured cells was extracted using ReliaPrep RNA Cell Miniprep System (Promega).
Reverse-transcription using the Revert Aid Kit (ThermoFisher Scientific, Waltham, Massachusetts, USA) allowed conversion of RNA to cDNA. The RT reaction was performed at 25° C. for ten minutes followed by 30 minutes at 50° C. For quantitative real-time polymerase chain reaction (qPCR), GoTaq QPCR Master Mix with BRYTE green (Promega) was used, subjected to qPCR in a 7500 real time PCR system and analysed using System SDS software v2.0.5 (Applied Biosystems, Waltham, Mass., USA), using GAPDH for normalisation. Reliability of GAPDH as house-keeping gene was determined using Normfinder (Anderson et al., 2004). Fold change differences between samples were determined using the comparative Ct (δδCt) method. The expression level of different targets, relative to GAPDH (δCt) and relative to the calibrator, was given by 2^−δδCt.

3D HepaRG = details: read-out: APAP EC50 values (±stdev), cited from earlier work

Structure (SMILES): CC(=O)Nc1ccc(O)cc1 [APAP, Acetaminophen]
- EC50 (3D HepaRG mono-culture [1]; 144 h, Day 6/7, current study): 11.6 mM
- EC50 (3D HepaRG mono-culture [1]; 504 h, Day 21/22, current study): 11.6 ± 2.15 mM
- toxic effect on the HSC (3D HSC mono-culture): only observed at the highest concentrations
- Col1a1 mRNA fold increase (3D HepaRG mono-culture [2]): 4.80 +/− 4.83 fold and 3.01 +/− 0.06 fold
- aSMA mRNA fold increase (3D HepaRG mono-culture [2]): 0.69 +/− 0.09 fold and 1.06 +/− 0.13 fold
- HSC activation markers after washout (3D HepaRG/HSC co-culture [3]): decrease of the HSC activation markers
- EC50 (3D HepaRG/HSC co-culture [4]; repeated exposure, day 8 to day 21): 2.25 ± 0.35 mM
- EC50 (3D HepaRG/HSC co-culture [4]; single exposure, 24 h on day 20): 10.4 ± 2.3 mM
- concentration of peak HSC activation (3D HepaRG/HSC co-culture [5]; repeated exposure): 5 to 10 mM
- HSC activation (up-regulation of activation markers, mRNA) (3D HepaRG/HSC co-culture [5]; repeated exposure): toxicity and HSC activation both in single and repeated-exposure
- concentration of peak HSC activation (3D HepaRG/HSC co-culture [5]; single exposure): 20 to 40 mM
- recovery of HSC 3 days after compound washout (3D HepaRG/HSC co-culture [5]; single exposure): observed
- HSC activation (up-regulation of activation markers, mRNA) (3D HepaRG/HSC co-culture [5]; single exposure 24 h): toxicity and HSC activation both in single and repeated-exposure
- EC50 (3D HepaRG; Day 6/7, Gunness et al. 2013, 2% DMSO): 2.7 ± 7.14 mM
- EC50 (3D HepaRG; Day 21/22, Gunness et al. 2013, 2% DMSO): 10.1 ± 9.9 mM
